Reference: the NIST ThermoML archive (doi:10.1021/je060490w)
“And” between values parts separate entries of the source, which are not always exact repeats. Equal entries are not always repeated. Numbers after ± are expanded uncertainties.

Legend:
[1] = xn = mol fraction of the nth substance listed; conditions: Pendant drop shape
[2] = for surface tension liquid-gas: Pendant drop shape; for mass density: 101.33 kPa, Liquid

COC(C)(C)OC [3,3-dimethyl-2,4-dioxapentane] + Cc1cc(C)cc(C)c1
[1]
Conditions | surface tension liquid-gas [mN/m]
298.15 K, x1 = 0.05 | 27.6 ± 0.31
298.15 K, x1 = 0.1002 | 27.14 ± 0.3
298.15 K, x1 = 0.1494 | 26.72 ± 0.3
298.15 K, x1 = 0.2001 | 26.28 ± 0.3
298.15 K, x1 = 0.252 | 25.88 ± 0.29
298.15 K, x1 = 0.3001 | 25.47 ± 0.29
298.15 K, x1 = 0.3496 | 25.1 ± 0.29
298.15 K, x1 = 0.3998 | 24.7 ± 0.29
298.15 K, x1 = 0.4525 | 24.33 ± 0.28
298.15 K, x1 = 0.4998 | 23.98 ± 0.28
298.15 K, x1 = 0.5497 | 23.62 ± 0.28
298.15 K, x1 = 0.5996 | 23.26 ± 0.28
298.15 K, x1 = 0.6506 | 22.93 ± 0.27
298.15 K, x1 = 0.7002 | 22.64 ± 0.27
298.15 K, x1 = 0.7503 | 22.37 ± 0.27
298.15 K, x1 = 0.7993 | 22.11 ± 0.27
298.15 K, x1 = 0.8511 | 21.89 ± 0.27
298.15 K, x1 = 0.8986 | 21.7 ± 0.26
298.15 K, x1 = 0.9494 | 21.57 ± 0.26
298.15 K, x1 = 1 | 21.46 ± 0.26
308.15 K, x1 = 0.0562 | 26.65 ± 0.3
308.15 K, x1 = 0.0995 | 26.21 ± 0.3
308.15 K, x1 = 0.1481 | 25.77 ± 0.29
308.15 K, x1 = 0.2023 | 25.29 ± 0.29
308.15 K, x1 = 0.2502 | 24.87 ± 0.29
308.15 K, x1 = 0.3002 | 24.49 ± 0.28
308.15 K, x1 = 0.3497 | 24.06 ± 0.28
308.15 K, x1 = 0.3982 | 23.71 ± 0.28
308.15 K, x1 = 0.4499 | 23.31 ± 0.27
308.15 K, x1 = 0.4964 | 22.95 ± 0.27
308.15 K, x1 = 0.5493 | 22.54 ± 0.27
308.15 K, x1 = 0.6001 | 22.17 ± 0.27
308.15 K, x1 = 0.6502 | 21.85 ± 0.26
308.15 K, x1 = 0.7006 | 21.52 ± 0.26
308.15 K, x1 = 0.7454 | 21.27 ± 0.26
308.15 K, x1 = 0.7999 | 20.99 ± 0.26
308.15 K, x1 = 0.8492 | 20.74 ± 0.26
308.15 K, x1 = 0.8998 | 20.57 ± 0.26
308.15 K, x1 = 0.9492 | 20.48 ± 0.25
308.15 K, x1 = 1 | 20.43 ± 0.25
313.15 K, x1 = 0.0511 | 26.21 ± 0.3
313.15 K, x1 = 0.1023 | 25.71 ± 0.29
313.15 K, x1 = 0.1503 | 25.26 ± 0.29
313.15 K, x1 = 0.2014 | 24.79 ± 0.29
313.15 K, x1 = 0.2506 | 24.39 ± 0.28
313.15 K, x1 = 0.3013 | 23.95 ± 0.28
313.15 K, x1 = 0.3498 | 23.56 ± 0.28
313.15 K, x1 = 0.396 | 23.19 ± 0.27
313.15 K, x1 = 0.4486 | 22.77 ± 0.27
313.15 K, x1 = 0.5014 | 22.36 ± 0.27
313.15 K, x1 = 0.5508 | 21.99 ± 0.26
313.15 K, x1 = 0.5931 | 21.68 ± 0.26
313.15 K, x1 = 0.6488 | 21.31 ± 0.26
313.15 K, x1 = 0.6988 | 20.99 ± 0.26
313.15 K, x1 = 0.7499 | 20.66 ± 0.25
313.15 K, x1 = 0.7994 | 20.4 ± 0.25
313.15 K, x1 = 0.8388 | 20.24 ± 0.25
313.15 K, x1 = 0.8976 | 20 ± 0.25
313.15 K, x1 = 0.944 | 19.95 ± 0.25
313.15 K, x1 = 1 | 19.91 ± 0.25

Cc1cc(C)cc(C)c1 [1,3,5-trimethylbenzene] + CCOC(C)OCC
[1], x2 = 0
Conditions | surface tension liquid-gas [mN/m]
298.15 K | 28.05 ± 0.31
308.15 K | 27.21 ± 0.3
313.15 K | 26.78 ± 0.3

Cc1ccc(C)c(C)c1 [1,2,4-trimethylbenzene]
[2]
Conditions | mass density [kg/m3] | surface tension liquid-gas
298.15 K | 871.71 ± 0.59 | 29.3 ± 0.33 mN/m
308.15 K | 863.68 ± 0.61 | 28.24 ± 0.32 mN/m
313.15 K | 859.58 ± 0.62 | 27.67 ± 0.31 mN/m and 27.71 ± 0.31 mN/m

Cc1ccc(C)c(C)c1 [1,2,4-trimethylbenzene] + CCOC(C)OCC
[1], x2 = 0
Conditions | surface tension liquid-gas [mN/m]
298.15 K | 29.3 ± 0.33
308.15 K | 28.24 ± 0.32
313.15 K | 27.71 ± 0.31

COC(C)(C)OC [3,3-dimethyl-2,4-dioxapentane]
[2]
Conditions | mass density [kg/m3] | surface tension liquid-gas [mN/m]
298.15 K | 845.09 ± 0.67 | 21.46 ± 0.26
308.15 K | 834.41 ± 0.69 | 20.43 ± 0.25
313.15 K | 828.99 ± 0.7 | 19.91 ± 0.25

Cc1cc(C)cc(C)c1 [1,3,5-trimethylbenzene] + COC(C)(C)OC
[1], x2 = 0
Conditions | surface tension liquid-gas [mN/m]
298.15 K | 28.05 ± 0.31
308.15 K | 27.21 ± 0.3
313.15 K | 26.78 ± 0.3

Cc1cc(C)cc(C)c1 [1,3,5-trimethylbenzene]
[2]
Conditions | mass density [kg/m3] | surface tension liquid-gas [mN/m]
298.15 K | 861.12 ± 0.59 | 28.05 ± 0.31
308.15 K | 852.94 ± 0.61 | 27.21 ± 0.3
313.15 K | 848.82 ± 0.62 | 26.78 ± 0.3

CCOC(C)OCC [1,1-diethoxyethane]
[2]
Conditions | mass density [kg/m3] | surface tension liquid-gas [mN/m]
298.15 K | 821.96 ± 0.7 | 20.88 ± 0.25
308.15 K | 811.48 ± 0.72 | 19.89 ± 0.25
313.15 K | 806.18 ± 0.73 | 19.42 ± 0.24

COC(C)(C)OC [3,3-dimethyl-2,4-dioxapentane] + Cc1ccc(C)c(C)c1
[1]
Conditions | surface tension liquid-gas [mN/m]
298.15 K, x1 = 0.0523 | 28.69 ± 0.32
298.15 K, x1 = 0.0998 | 28.17 ± 0.32
298.15 K, x1 = 0.1497 | 27.62 ± 0.31
298.15 K, x1 = 0.1996 | 27.12 ± 0.31
298.15 K, x1 = 0.2517 | 26.6 ± 0.3
298.15 K, x1 = 0.3009 | 26.13 ± 0.3
298.15 K, x1 = 0.3494 | 25.68 ± 0.3
298.15 K, x1 = 0.3987 | 25.24 ± 0.29
298.15 K, x1 = 0.4502 | 24.79 ± 0.29
298.15 K, x1 = 0.4994 | 24.37 ± 0.29
298.15 K, x1 = 0.5498 | 23.95 ± 0.28
298.15 K, x1 = 0.5996 | 23.55 ± 0.28
298.15 K, x1 = 0.6508 | 23.17 ± 0.28
298.15 K, x1 = 0.6997 | 22.82 ± 0.27
298.15 K, x1 = 0.7498 | 22.51 ± 0.27
298.15 K, x1 = 0.7992 | 22.24 ± 0.27
298.15 K, x1 = 0.8508 | 22 ± 0.27
298.15 K, x1 = 0.8997 | 21.79 ± 0.26
298.15 K, x1 = 0.9489 | 21.62 ± 0.26
298.15 K, x1 = 1 | 21.46 ± 0.26
308.15 K, x1 = 0.0515 | 27.59 ± 0.31
308.15 K, x1 = 0.0998 | 27.02 ± 0.31
308.15 K, x1 = 0.1499 | 26.47 ± 0.3
308.15 K, x1 = 0.2001 | 25.95 ± 0.3
308.15 K, x1 = 0.2475 | 25.5 ± 0.3
308.15 K, x1 = 0.302 | 24.97 ± 0.29
308.15 K, x1 = 0.3512 | 24.53 ± 0.29
308.15 K, x1 = 0.3995 | 24.12 ± 0.28
308.15 K, x1 = 0.4485 | 23.66 ± 0.28
308.15 K, x1 = 0.4989 | 23.23 ± 0.28
308.15 K, x1 = 0.5542 | 22.77 ± 0.27
308.15 K, x1 = 0.5998 | 22.4 ± 0.27
308.15 K, x1 = 0.6518 | 22.02 ± 0.27
308.15 K, x1 = 0.6987 | 21.69 ± 0.26
308.15 K, x1 = 0.7455 | 21.44 ± 0.26
308.15 K, x1 = 0.7962 | 21.11 ± 0.26
308.15 K, x1 = 0.851 | 20.86 ± 0.26
308.15 K, x1 = 0.8973 | 20.71 ± 0.26
308.15 K, x1 = 0.9456 | 20.55 ± 0.26
308.15 K, x1 = 1 | 20.43 ± 0.25
313.15 K, x1 = 0.0506 | 27.03 ± 0.31
313.15 K, x1 = 0.0996 | 26.42 ± 0.3
313.15 K, x1 = 0.1509 | 25.86 ± 0.3
313.15 K, x1 = 0.1994 | 25.36 ± 0.29
313.15 K, x1 = 0.2511 | 24.87 ± 0.29
313.15 K, x1 = 0.3032 | 24.38 ± 0.29
313.15 K, x1 = 0.3475 | 23.95 ± 0.28
313.15 K, x1 = 0.3981 | 23.52 ± 0.28
313.15 K, x1 = 0.4501 | 23.07 ± 0.27
313.15 K, x1 = 0.5 | 22.66 ± 0.27
313.15 K, x1 = 0.5487 | 22.25 ± 0.27
313.15 K, x1 = 0.5993 | 21.84 ± 0.26
313.15 K, x1 = 0.6504 | 21.45 ± 0.26
313.15 K, x1 = 0.6993 | 21.12 ± 0.26
313.15 K, x1 = 0.7486 | 20.8 ± 0.26
313.15 K, x1 = 0.7987 | 20.51 ± 0.25
313.15 K, x1 = 0.8417 | 20.31 ± 0.25
313.15 K, x1 = 0.8929 | 20.12 ± 0.25
313.15 K, x1 = 0.9487 | 19.97 ± 0.25
313.15 K, x1 = 1 | 19.91 ± 0.25
